# Experimental data as given in patent publication US4141986A, “Antibiotics 890A2 and 890A5” (Merck & Co., Inc., priority 1977, dated 1979).
# System: Vibrio percolans ATCC 8461
# Experiment: Assay procedure for 890 Assay Units, disc-diffusion with cephaloridine standard
# Type: cell-based
# Experimental: A conventional agar plate disc-diffusion method is employed using Vibrio percolans ATCC 8461 as tester organism. Cephaloridine is employed as a standard. Plates containing Vibrio percolans ATCC 8461 are prepared as follows. A culture of Vibrio percolans ATCC 8461 is incubated in nutrient broth-yeast extract overnight on a rotary shaker at 28° C. and then diluted to a density of 60% transmittance at 660 nm. A 33.2 ml. portion of this diluted culture is added to 1 liter of a medium composed of nutrient agar plus 0.2% yeast extract maintained at 46° C. The inoculated agar-containing medium is poured into 100 × 15 mm. plastic-petri dishes, 10 ml. per dish, chilled, and maintained at 2°-4° C. for up to 5 days before use.
# The concentration of cephaloridine which is equivalent to 1 unit/ml. of 890A is deterined by assay on plates prepared as above, but containing 5 ml. of inoculated medium per plate, as follows. Four concentrations of cephaloridine constitute the standard -- 3.12, 6.25, 12.5 and 25 mcg per ml. with the 12.5 mcg per ml. as a reference solution. The zone diameters on a 5 ml. plate for the standard are as follows:
# A unit is defined as the amount of antibiotic per ml. producing a 25 mm. zone of inhibition on a 5 ml. plate as described in section I above. Therefore, in this assay a concentration of 2.5 mcg per ml. of cephaloridine is considered equivalent to 1 unit of 890A per ml. Since the slope of the line for cephaloridine is 4.0 calculations of the potency of a sample are made using a slope of 4.0.
structure (smiles),measurement,setting,value
"O=C(Cc1cccs1)N[C@@H]1C(=O)N2C(C(=O)[O-])=C(C[n+]3ccccc3)CS[C@H]12 [cephaloridine, Cephaloridine]",concentration considered equivalent to 1 unit of 890A per ml.,25 mm. zone of inhibition on a 5 ml. plate,2.5 mcg per ml.
same,zone of inhibition at 3.12 µg/mL,"Comamonas terrigena, ATCC8461, 3.12 mcg./ml., 5 ml. plate, read-out: Zone Diameter",16.8 mm
same,zone of inhibition at 6.25 µg/mL,"Comamonas terrigena, ATCC8461, 6.25 mcg./ml., 5 ml. plate, read-out: Zone Diameter",22.3 mm
same,zone of inhibition at 12.5 µg/mL,"Comamonas terrigena, ATCC8461, 12.5 mcg./ml., 5 ml. plate, read-out: Zone Diameter",25 mm
same,zone of inhibition at 25 µg/mL,"Comamonas terrigena, ATCC8461, 25 mcg./ml., 5 ml. plate, read-out: Zone Diameter",29.6 mm
same,slope of the line,zone diameter against concentration of the standard,4.0
